Here are results for 1 compound from US9005670B2, “Use of histone acetyltransferase inhibitors as novel anti-cancer therapies” (The Johns Hopkins University, priority 2010, dated 2015).

The structures appear in SMILES notation. A value given as a limit tells only on which side of the number the result lay.

Assay [1] has as its system WM983A melanoma cells. Nature of the assay: cell cycle analysis, propidium iodide FACS. The assay is classed as cell-based, human. The conditions noted are these: 48 hours. As to the method:
The degree of growth arrest observed in these experiments corresponds with the decrease in ^3H-thymidine incorporation described above.
Cells treated with C646 or DMSO were stained with propidium iodide (PI). Briefly, equal number of cells (greater than 10 6) in 0.5 ml PBS were fixed in 70% ethanol for at least 2 h at 4° C. A stock staining solution containing 10 ml of 0.1% Triton X-100 in PBS, 400 μl of RNase cocktail (equivalent of −200 units of RNase A) (Ambion), and 200 μl of 1 mg/ml PI was prepared. Fixed cells were spun at 200 g for 5 min (Beckman Coulter Allegra® X-12R, with an SX4750A rotor), re-hydrated in 5 ml PBS, and spun again to remove all traces of ethanol. Cells were stained with 1 ml staining solution for 20 min at 37° C., then immediately analyzed on a FACSCalibur flow cytometer (BD Biosciences) at the Johns Hopkins Flow Cytometry Core Facility. Data acquisition and analysis were performed with the CellQuest software (BD). WinMDI 2.9 (http://facs.scripps.edu.software.html) was also used for data presentation.

Assay [2] deals with T1, Rtt109/Vps75 complex (Saccharomyces cerevisiae, UniProt Q07794).
T1 construct: made in house
T1 sequence (Q07794 whole entry): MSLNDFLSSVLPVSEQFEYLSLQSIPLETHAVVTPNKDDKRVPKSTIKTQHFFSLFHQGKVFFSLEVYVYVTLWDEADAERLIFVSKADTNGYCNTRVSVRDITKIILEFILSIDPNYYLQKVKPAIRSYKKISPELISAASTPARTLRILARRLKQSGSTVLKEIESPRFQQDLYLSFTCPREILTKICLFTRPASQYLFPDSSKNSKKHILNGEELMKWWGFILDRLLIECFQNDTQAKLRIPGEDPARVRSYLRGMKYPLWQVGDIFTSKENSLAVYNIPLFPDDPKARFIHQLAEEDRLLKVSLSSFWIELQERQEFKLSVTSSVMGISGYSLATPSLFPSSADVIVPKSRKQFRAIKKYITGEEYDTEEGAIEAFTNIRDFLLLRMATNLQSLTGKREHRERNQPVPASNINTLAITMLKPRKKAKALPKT
T1 sequence (P53853 whole entry partner): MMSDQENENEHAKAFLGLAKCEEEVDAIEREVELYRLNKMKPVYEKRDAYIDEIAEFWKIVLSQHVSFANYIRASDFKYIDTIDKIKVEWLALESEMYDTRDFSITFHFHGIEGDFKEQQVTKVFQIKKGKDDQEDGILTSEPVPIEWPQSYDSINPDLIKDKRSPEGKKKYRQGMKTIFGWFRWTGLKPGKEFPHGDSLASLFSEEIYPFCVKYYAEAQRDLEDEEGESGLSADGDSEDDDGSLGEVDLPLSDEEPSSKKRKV
Nature of the assay: Rtt109 direct radioactive HAT assay. The conditions noted are these: 10 μM compound; read-out: Percent inhibition of acetyltransferase, Rtt109. Format: biochemical. As to the method: PCAF reactions were performed in 100 mM HEPES, pH 7.9, and contained 200 μM TPP, 5 mM MgCl2, 1 mM DTT, 50 mM NaCl, 0.05 mg/mL BSA, 200 μM NAD, 2.4 mM α-KG, 30 μM acetyl-CoA, 0.037 units α-KGDH, 3.3% DMSO, and 10 μM inhibitor. Reactions took place at 30° C. Reactions were initiated by addition of 10 nM PCAF and were followed at 340 nm over the linear portion of the curve below 10% turnover. AANAT reactions were performed in 100 mM NH4 OAc, pH 6.8, and contained 200 μM TPP, 5 mM MgCl2, 1 mM DTT, 50 mM NaCl, 0.05 mg/mL BSA, 200 μM NAD, 2.4 mM α-KG, 200 μM AcCoA, 0.1 units α-KGDH, 3.3% DMSO, and 10 μM inhibitor. Reactions took place at 25° C. Reactions were initiated with addition of 65 nM AANAT, and followed at 340 nm, as above. Percent inhibition values were compared to those with p300, which were repeated using the protocol given above. […]
HAT assays with yeast GCN5, SAS complex, MOZ, and Rtt109/Vps75 complex used the direct radioactive assay described above. […] The amount of enzyme used in each assay was estimated by comparing Coomassie Blue staining of samples with bovine serum albumin standards, analyzed by SDS-PAGE. […] The rate of ^14C-incorporation into histone H3 was quantified by autoradiography. […]

Assay [3] has as its system D54 glioblastoma cells. As to the kind of experiment: AlamarBlue growth inhibition, D54. Format: cell-based. Conditions: D54, 72 hours. How it is done:
Dose response curves were generated using the AlamarBlue® assay (Invitrogen, Carlsbad, Calif.).
When inhibition was assessed using the AlamarBlue® assay (Invitrogen, Carlsbad, Calif.), cells were initially seeded at 500 cells per well in a 96-well plate. AlamarBlue® is a non-toxic reagent that measures cellular metabolic activity. Its main ingredient is resazurin, a non-fluorescent indicator dye that is reduced to bright red-fluorescent resorufin in metabolically active cells. AlamarBlue® was added to growth medium at 1/10 of the total volume (e.g., 20 μl in 200 μl total volume). […] Fluorescence reading was taken from the same plate every day for 5 days to ensure that the saturation point was not reached. Fluorescence intensity is proportional to the number of live cells in the plate.
(The colour change of resazurin is a common sign of viable cells or microbes.)

In assay [4] the test system is cyclin A in melanoma cells. As to the kind of experiment: cyclin A protein expression, Western blot. Conditions: 10-20 μM C646. The assay is classed as cell-based. From the text: FIGS. 19A and 19B show the effects of p300/CBP HAT inhibition on cyclin A protein expression in melanoma cells.
Cyclin A is involved in two cell cycle checkpoints. Cyclin A associates with cdk2 to promote S phase progression, and then it associates with cdc2 during the G2 phase.
Background: Immunoblotting shows a protein as a band on a membrane.

Assay [5] deals with AANAT (arylalkylamine N-acetyltransferase) (Ovis aries, UniProt Q29495). As to the kind of experiment: AANAT coupled spectrophotometric assay. The assay is classed as biochemical. Conditions: 10 μM compound; read-out: Percent inhibition of acetyltransferase, AANAT.
AANAT (arylalkylamine N-acetyltransferase), sequence (Q29495 whole entry): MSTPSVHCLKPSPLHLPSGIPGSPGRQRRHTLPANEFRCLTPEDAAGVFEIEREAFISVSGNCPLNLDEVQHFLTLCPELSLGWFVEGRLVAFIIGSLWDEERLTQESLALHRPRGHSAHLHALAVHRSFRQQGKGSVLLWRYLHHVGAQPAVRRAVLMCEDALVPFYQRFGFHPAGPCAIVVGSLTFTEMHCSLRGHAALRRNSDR
Assay [6] addresses PCAF (p300/CBP-associated factor) (Homo sapiens, UniProt Q92831). As to the kind of experiment: PCAF coupled spectrophotometric assay. The assay is classed as biochemical. Conditions: 10 μM compound; read-out: Percent inhibition of acetyltransferase, PCAF.

PCAF (p300/CBP-associated factor), sequence (Q92831 493-658 limits assumed, species assumed): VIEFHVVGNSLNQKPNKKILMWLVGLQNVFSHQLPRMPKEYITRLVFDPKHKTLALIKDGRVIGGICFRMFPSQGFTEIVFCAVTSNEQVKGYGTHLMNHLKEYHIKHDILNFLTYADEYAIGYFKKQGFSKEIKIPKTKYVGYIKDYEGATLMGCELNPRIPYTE

A word on the inhibition: it is the change of the read-out against control, counted positive when it falls. As a reminder, the IC50 is the concentration needed to halve the response being measured. A higher IC50 goes with weaker potency in that assay. As to `CC1=NN(c2ccc(C(=O)O)cc2)C(=O)C1=Cc1ccc(-c2cc(C)c(C)cc2[N+](=O)[O-])o1` [Compound C646, 4-(4,5-dihydro-3-methyl-4-((5-(4,5-dimethyl-2-nitrophenyl)furan-2-yl)methylene)-5-oxopyrazol-1-yl)benzoic acid], the cell cycle distribution entry in assay [1] was “decreased the number of cells in S and G2 phase”. Moreover, the inhibition at 10 µM in assay [2], in assay [5] and in assay [6] was less than 10% each time. Moreover, the IC50 in assay [3] was 9.3 µM. The “cyclin A protein level” value in assay [4] is listed as “decreases after C646 treatment in a dose-dependent fashion”.
